Reference: patent US10785978B2, “Control and repellency of biting flies, house flies, ticks, ants, fleas, biting midges, cockroaches, spiders and stink bugs” (priority 2012, dated 2020)

Columns and labels:
Assay type in all cases: in vivo
Brown Dog Ticks = assay: Second repellent assay against Brown Dog Ticks; conditions: 15% in isopropyl alcohol
Procedure: Also, a second repellent assay was used to evaluate six test samples against Brown Dog Ticks. Five replicates of five ticks were given the opportunity to quest onto a vertical strip of untreated filter paper and then allowed to move upward toward a second vertical strip of filter paper treated with one of the six candidate repellents or DEET®. In the control situation, the second strip was treated with isopropanol. They were then observed for directional or behavioral changes caused in response to contact with the repellent. Ticks were recorded as either repelled or not repelled. Compounds were diluted in isopropyl alcohol. The percentages of ticks repelled are shown below in Table 6.

house flies = assay: House fly repellency on treated filter paper food trays in cages; conditions: 5% in isopropyl alcohol; over 6 hours
Procedure: The bottom of each cage was lined with brown craft paper and divided into 4 equal quadrants. Each quadrant housed a makeshift filter paper food tray. Two of the four filter papers were treated with repellent and two treated with isopropanol. Control cages contained filter papers that were treated with 4 filter papers of isopropanol only. The number of flies resting on filter paper per quadrant was recorded every 30 minutes for a total of 6 hours. Cages were rotated to eliminate positional bias. […] Each of the test samples were diluted in isopropyl alcohol.

Black Widow spiders = assay: Black Widow spider choice test in half-treated tube shelters; conditions: 5% in isopropanol; location after 24 hours
Procedure: Control against Black Widow spiders was determined using the following protocol. One test container containing two card stock tube shelters, one half treated with a test sample and the other half treated with isopropanol was prepared. A spider was introduced in the center of the tube. The spider was then given a choice to move to one end of the shelters. The following day, its location is recorded and compared to the results from a shelter containing untreated half-shelters.
On the day of the test one of the two shelters was sprayed with the test sample solution using a 2 oz pump spray bottle. Only the surfaces that the spider will most likely contact were treated. Therefore, only the inside of one of the shelter tubes, including the end disc (spiders will not be able to access the outside part of the shelter) were sprayed. The total amount of product was weighed and recorded. The treated surface was allowed to dry for a minimum of ½ hour, or until solvent could not be detected by smell. At this time the shelter tubes were assembled.
Card stock paper tube shelters were constructed from 2 half-letter sized sheets (5½″×8½″) of paper, rolled and taped together to form a short tube. One end of each was covered with a circle of card stock paper, while the other end was later taped to the open end of the other half sheet, forming one long tube. […] The solvent-treated half was labeled with a “C” on the inner and outer walls with a pencil or a pen with solvent resistant ink. Prior to forming the final tube shelter, a semi-circular hole was cut into one of the margins of each sheet such that, once the two tubes are taped together, the holes correspond to the top and at the junction of the tubes for introduction of the spiders.
Twenty-five arenas were prepared in this manner for each test sample. There were five replicates of five spiders. Twenty-five additional control arenas were also prepared. They were prepared the same way, except that areas to be sprayed were sprayed with isopropanol only.
Replicates of five spiders were selected for each test formulation and for the control. The specimens were visually examined for overall physical condition. […] The spiders were transferred directly into the holding vials using flexible forceps or with a little coaxing with an artist brush. Because of their cannibalistic tendencies, each vial contained only one spider. There they were held until the time for testing.
At the test start the spiders were placed directly in the middle, through the opening at the top of the shelter tube, and the opening covered, with only one spider per arena. […] They were left alone for 24 hours, after which time their location within the arena was recorded. Spiders present inside the shelter treated with the test repellent were considered tolerant.

stable flies = assay: Stable fly probing on treated warmed blood-filled membranes; conditions: for Probes at 7% test compound: 7% in isopropyl alcohol on membrane; for Probes at 7% test compound / Probes at 15% test compound: twenty minutes, percent of control probes taken as 100%; for Probes at 15% test compound: 15% in isopropyl alcohol on membrane; for repellency compared with DEET: at the same concentrations (7% and 15%)
Procedure: Five replicates of 100 mixed-sex stable flies each were placed in screened cages. The cages were placed in such a way that the stable flies had access to five warmed, blood-filled membrane walls. The membranes were treated with methyl dihydrojasmonate, gamma-dodecalactone, methyl apritone, or DEET® all at 7% and at 15% in isopropyl alcohol, or isopropyl alcohol as a control. There were five replicates tested with a positional rotation of the repellent at each replicate. Fresh batches of stable flies were used for each replicate. Thus each test sample was tested on each of the five wells, which allowed any positional bias to be eliminated. The number of stable flies probing each well was recorded at two minute intervals for twenty minutes. The total number of probes on each well were tallied at the end of the twenty minute observation period and the average percentage repellency was calculated for each compound. An analysis of variance was conducted to compare the average number of probes on each treatment membrane. The number of probes for the control was taken as the 100% baseline and the percentage for the test compounds is the percent for the number of probes for the test compound compared to the number of control probes.

Pharaoh ants = assay: Pharaoh ant behaviour at treated-untreated interface on poster board; conditions: 50% in acetone; 5 minutes after release
Procedure: Pharaoh ants were tested using the following protocol. The side of a 17″×23″ rectangular sheet of poster board was sprayed with the test sample or acetone, except for a region within a 6″ circle. The treated poster board was allowed to dry. Five worker ants were placed in the center of the 6″ untreated circle and allowed to wander outside the circle onto the treated surface. The behavior of the ants at the treated-untreated interface was recorded for 5 minutes after release. Test compounds were diluted in acetone.

[1] = tested on: Brown Dog Ticks, Rhipicephalus sanguineus; conditions: in vivo
Description: The following protocol was employed to test compounds of this invention for toxicity (mortality) against ticks. There were 5 replicates of 5 dog ticks for each treatment. […] Filter paper strips were laid on a sheet of aluminum foil and enough of each of the test sample was applied to thoroughly saturate the paper. The paper was then rolled and placed inside a glass shell vial as to line the sides of the vial. A small paper disc, also saturated with the test sample, was then placed at the bottom of the vial. Brown Dog Ticks, Rhipicephalus sanguineus, were then introduced into the vials which were covered with aluminum foil, the inside of which was painted with some of the test sample. The ticks remained in the vials, constantly exposed to the test samples, for the duration of the test. A small hole was poked through the foil for ventilation. Each control replicate was subjected to the same procedures outlined above, except that they were not treated. The controls were placed in the same area as the test replicates for the duration of the test. Mortality observations were made at 24 hours. Ticks were classified as alive (able to move normally), moribund (those classified as moribund will show some movement, but will not be able to crawl in a coordinated manner, or will be unable to right themselves if placed on their backs), or dead (no movement after physical stimuli). All dead ticks were confirmed by probing or agitation to make sure that they are unable to move; any that show movement visible to the naked eye were recorded as moribund. At 24 hours the tick mortality was 0% for the control, 100% for γ-dodecalactone, 100% for methyl apritone and 76% for methyl dihydrojasmonate.

Compound | Mean % repelled (Brown Dog Ticks) | Overall % Repellency (house flies) | % Repellency (Black Widow spiders) | Probes at 7% test compound (stable flies) | Probes at 15% test compound (stable flies) | repellency compared with DEET (stable flies) | % crossed without stopping (Pharaoh ants) | % slowed, but crossed (Pharaoh ants) | % stopped at interface (Pharaoh ants) | 24 hr mortality (%) [1] | tick mortality at 24 hours [1]
CCC(C)=CCCC(C)=CCC1CCCC1=O (stereo not shown) [Methyl apritone, methyl apritone] | 100% | 45% | 37.5% | 28.8% | 7.4% | repelled better than DEET® | 66% | 2% | 66% | 100% | 100%
CCCCCC1C(=O)CCC1CC(=O)OC (stereo not shown) [Methyl dihydrojasmonate, methyl dihydrojasmonate] | 100% | 52% | 87.5% | 4.5% | 3.2% | repelled better than DEET® | 50% | 20% | 32% | 76% | 76%
